The text below walks through data of a melting point compilation (Tetko et al.; mined from patent text by program, amines drawn as free bases though some values may be those of a salt).

As usually defined, the melting point is the temperature of the solid-liquid transition. `CCCC(=O)Nc1cc(N(CCO)CCO)ccc1N=Nc1snc(C)c1C#N`: the melting point is 175 to 178 °C. As for `O=C(O)c1sc(-c2ccc(C(F)(F)F)cc2)nc1CO`, the figure is 250 to 252 °C; as for `CN1CCC(c2cc3cccc(O)c3o2)CC1`, 144 to 146 °C; as for `CNC(=O)C(Cc1ccc(OC)cc1)NC(=O)C(=CCC(=O)OC)CC(C)C` (centres undefined), 142 to 144 °C. `c1ccc2c(c1)CC1CN(Cc3c[nH]c4ncccc34)CCN21` (centres undefined) came in with a melting point of 197 to 198 °C. As for `COC(=O)c1nc(Cl)c(Cl)c(Cl)c1N`, the figure is 151 to 152 °C; as for `CNc1nc(Nc2ccc(Cl)c(Cl)c2)ncc1NC(C)=O`, 267 °C. The figure for `Cc1[nH]c(C(=O)NCC2=NNC(=O)CC2)c(C)c1-c1nc2ccc(C(=O)c3ccccc3)cc2[nH]1` is 287 °C. `O=C(Cc1ccc(O)cc1)c1c(O)cc(O)cc1O` displayed a melting point of 259 °C. For the molecule `CNC1=Nc2sc(Cl)cc2C(c2ccccc2)=NC1`, the melting point lay in the range of 247 to 250 °C.

Consider `c1ccc(CN2CCN(c3n[nH]c4c3CCc3ccccc3-4)CC2)cc1`, for which the melting point lay in the range of 254 to 256 °C.

Take `COc1ccc(C=O)cc1-c1nsc2ccc(-n3c(=O)cc(C(F)(F)F)n(C)c3=O)cc12`: the melting point lay in the range of 118 to 120 °C. The figure for `CC(C)C[C@H](NC(=O)NCc1ccccc1)C(=O)N[C@@H](C(C)C)[C@@H](O)c1c(-c2ccccc2)c1=O` is 160 °C; for `CS(=O)c1nnc(-c2ccc3occ(-c4cc(F)ccc4F)c3c2)o1` (centres undefined) it is 151 to 152 °C; for `COc1ccc(C(O)(c2ccc3c(c2)C(c2cccc(Cl)c2)Nc2nnnn2-3)c2cncn2C)cc1` (centres undefined) it is 220 °C. The figure for `O=CNC1CCN(c2ncc3ncnc(Nc4ccc(F)c(Cl)c4)c3n2)CC1` is 201 to 203 °C; for `Cc1sc(C(=O)NCc2ccc3c(c2)OCO3)cc1NC(=O)NCc1ccccc1` it is 194 to 195 °C. In turn, `CN1CC(CCn2ccnc2)Oc2ncccc2C1=O` (centres undefined) showed a melting point of 150 to 152 °C. As to `O=C1NC(=O)C(Cc2ccc(OCCN3C(=O)SC(c4ccccc4)C3=O)cc2)S1` (centres undefined), the melting point is 67 °C.

In turn, `CCSC(=O)n1c(=NC(=O)N(C)C)sc2ccccc21` had a melting point of 138 °C.

Molecule `CN(C)c1ccccc1CSC1=NC(=O)C(C)(C)N1` gave a melting point of 113 to 115 °C. Molecule `O=C(O)CNC(=O)CSCCCCc1ccc2c(c1)OCO2` gave a melting point of 95 to 96 °C.

In turn, `C=CC(=O)N1CCc2cc(OC)c(OC)cc2C12CCC(C(=O)OCC)(C(=O)OCC)CC2` registered a melting point of 131 to 134 °C. For the molecule `COc1ccccc1-c1coc2cc(O)c(Cl)cc2c1=O`, the melting point fell in the range of 228 to 230 °C.

In turn, `CCn1cc2c(n1)c(N)nc1cc(OCc3ccccc3)ccc12` had a melting point of 229 to 230 °C. The figure for `CC(=O)Nc1ccc2c(c1)OC(C)(C)C=C2` is 80 to 81 °C. Take `NC(=S)Nc1ccc2ccccc2c1`: the melting point lay in the range of 190 to 192 °C. Take `Cc1cc(-c2cc(F)c(F)cc2-c2ccc(S(N)(=O)=O)cc2)ccc1Cl`: the melting point fell in the range of 142 to 143 °C. The figure for `COc1ccc(-c2c(Cl)c(CN3C(=O)CCC3=O)nc3sc4c(F)c(OC)ccc4c23)cc1` is 215 to 216 °C. The figure for `O=C(O)c1cccc2cc3ccccc3nc12` is 202 to 204 °C. In turn, `CCOC(=O)[C@@H](CO)NCc1c(N)cccc1Cl` displayed a melting point of 73 to 75 °C. Take `Cc1ccc(S(=O)(=O)Cl)c(C)c1NC(=O)CCl`: the melting point was 148 to 149 °C. The figure for `NC(=O)c1cc(=O)c(-c2ccccc2)co1` is 245 to 248 °C; for `Cc1nn(Cc2ccccc2)c(=O)[nH]c1=O` it is 141 to 142 °C.

As for `c1ccc(-n2c(C3=NCCN3)cc3ccccc32)cc1`, the melting point fell in the range of 180 to 182 °C. The figure for `CCCCNC(=O)[C@H](C)C[C@H](O)[C@H](CC1CCCCC1)NC(=O)[C@H](Cc1cscn1)NC(=O)[C@@H](CC(=O)N1CCOCC1)Cc1ccccc1` is 162 to 163 °C.

Regarding `c1ccc(-c2nc3ccccc3n2-c2ccccc2)cc1`, the melting point is 105 to 107 °C. The figure for `COc1cc(OC)c(C(=O)CCCCCl)cc1N` is 87 to 88 °C. The figure for `CNc1coc2ccccc2c1=S` is 134 °C. The figure for `COP(=O)(Cc1ccc(NC(=O)[C@H]2Cc3cc4c(cc3C(=O)[C@H](C)S2)OCO4)cc1)OC` is 198 to 199 °C; for `CCOC(=O)c1ccc(/C=C(\C)C=O)s1` it is 98 °C; for `CC(C)(C)c1cc2c(c(C(=O)Nc3ccc(S(=O)(=O)C(F)(F)F)cc3Cl)c1O)CCO2` it is 201 to 202 °C. The molecule `CCC(CC)n1c(N)nc2c(Oc3c(C)cc(C)cc3C)nc(C)cc21` yielded a melting point of 208 to 210 °C. As for `CCCCCN1C(=O)C2(OCc3cc4c(cc32)OCO4)c2ccccc21` (centres undefined), the figure is 113 to 115 °C; as for `Cn1nnnc1SCC(=O)NC/C=C\COc1cc(CN2CCCCC2)ccn1`, 58 to 62 °C; as for `Cc1ccc(S(=O)(=O)OC2CCN(S(=O)(=O)c3ccc(C)cc3)CC2)cc1`, 137 to 140 °C.

As to `COc1cc(NC(=O)OC(C)(C)C)c(NC(=O)CC(=O)c2cccc(-n3ccnc3C)c2)cc1-c1ccccc1F`, the melting point fell in the range of 83 to 86 °C. As for `OCC1Cc2c(c(Cl)cc3c(-c4c(F)cccc4F)noc23)O1` (centres undefined), the figure is 166 to 169 °C; as for `CC(C)c1nc(CCOC(=O)N[C@H](C(=O)N[C@@H](Cc2ccccc2)[C@@H](O)C[C@H](Cc2ccccc2)NC(=O)OCc2cncs2)C(C)C)cs1`, 159 to 160 °C. The figure for `Brc1ccc2cc(N(c3ccccc3)c3ccccc3)ccc2c1` is 136 to 137 °C. The figure for `O=C(O)CCC(=O)c1ccc(NC(=O)C2CC2)cc1` is 229 to 230 °C.

For `CC(=O)N[C@@H]1c2cc(C#N)ccc2CC(C)(C)[C@H]1O` (relative stereo), the melting point lay in the range of 203 to 205 °C. The figure for `CCOC(=O)N(N=c1[nH]c(SC)nc2ccc(C)cc12)c1ccccc1` is 230 °C. The figure for `COc1ccc(C)cc1NC(=O)Nc1ccc(N2CCN(C(=O)Nc3ncccc3C(=O)O)CC2)cc1` is 165 to 168 °C.

Molecule `O=C(CBr)c1ccc(OCCO)cc1` returned a melting point of 78 °C. The figure for `COc1cc(-c2oc3cc(I)ccc3c(=O)c2O)cc(OC)c1OCc1ccccc1` is 169 to 171 °C. The figure for `CCCN(CCC)c1ccc(S(=O)(=O)N2CCCCC2=O)cc1` is 105 to 108 °C. The figure for `CCc1nc(-c2cccc(C)c2)c(-c2ccnc(N(C)C(=O)Cc3ccccc3)c2)s1` is 75 to 76 °C; for `COc1ccc(Cn2c(=O)c3ccc([N+](=O)[O-])cc3n(CCCCBr)c2=O)cc1` it is 122 to 123 °C; for `COc1ccc(-c2c(-c3ccccc3)nc3n2CCS3)cc1OC` it is 176 to 178 °C. In turn, `CC(C)NC(=O)c1ccc(C(=O)N2CCN(c3ncccc3N)CC2)nc1` showed a melting point of 142 to 143 °C.

`CCCCc1ncc(/C=C(\Cc2cccs2)c2nnn[nH]2)n1Cc1ccccc1[N+](=O)[O-]`: the melting point lay in the range of 231 to 234 °C. The figure for `CC(=NO)C(=O)C(C)(C)C` is 107 to 110 °C; for `CC(NC(=S)Nc1ccc(N2CCCCC2)nc1)C(C)(C)C` (centres undefined) it is 151 to 153 °C; for `O=C(O)c1ccccc1-c1ccc([N+](=O)[O-])cn1` it is 262 to 264 °C. In turn, `COc1ccc(C#Cc2cccc(C(C)N(O)C(N)=O)c2)cc1` (centres undefined) came in with a melting point of 141 to 142 °C.

In turn, `CC(=O)Nc1ccc(C2=NC(C)(C)C(c3ccncc3)C2)cc1` (centres undefined) showed a melting point of 222 to 225 °C. As for `COc1cc2c(cc1OC)-c1cc(Nc3c(C)cccc3C)nc(=O)n1CC2`, the figure is 297 to 299 °C; as for `CC(C)Nc1nc2c(Cl)cc(Cl)cc2n1[C@H]1O[C@@H](CO)[C@H](O)[C@@H]1O`, 212 to 214 °C; as for `COc1c(C#N)cc([N+](=O)[O-])cc1C#N`, 144 to 148 °C.

Molecule `CC(CS)C(=O)N1CC2CCCCC2C1C(=O)O` (centres undefined) registered a melting point of 119 to 129 °C. The figure for `O=C1c2ccccc2C(=O)N1Cc1ncc(C(F)(F)F)cc1Cl` is 145 to 146 °C; for `CC(C)COc1c(-c2ccc(S(N)(=O)=O)cc2)cnn(-c2ccc(F)cc2)c1=O` it is 132 to 136 °C. As for `C=Cc1ccc(CSCCNC(=S)CCC(=O)O)cc1`, the figure is 97 to 99 °C; as for `Cn1nc(-c2c(F)cccc2Cl)nc1-c1ccc(COc2ncc(Cl)cc2Cl)c(Cl)c1`, 153 to 155 °C; as for `CC(=O)c1ccc(-n2sc3ccccc3c2=O)cc1`, 183 to 185 °C. The figure for `CC(CC#N)CN1C(=O)c2ccccc2S1(=O)=O` (centres undefined) is 83 to 84 °C; for `S=C(NCCCN1CCN(Cc2ccc(Cl)cc2)CC1)Nc1ccccc1` it is 155 to 156 °C. `C=CCn1c(C)nc2c1CC(C(=O)OCC)CC2=O` (centres undefined): the melting point lay within 95 to 97 °C. As for `OCc1cn(-c2ccc(Cl)c(C(F)(F)F)c2)cn1`, the figure is 148 to 153 °C; as for `Cc1ccc(S(=O)(=O)n2ccc3c(CBr)cccc32)cc1`, 113 to 134 °C. The figure for `CC(C)CCOC(=O)C(O)C(CC(C)C)NC(=O)C(Cc1c[nH]cn1)NC(=O)C(CC(=O)NCCc1ccccc1)Cc1cccc2ccccc12` (mixture of isomers) is 82 to 87 °C; for `COC(=O)c1ccc(O)cc1NC(=O)NS(=O)(=O)c1ccc(Cl)cc1` it is 244 to 248 °C. As for `O=C1c2ccc(Nc3ccc(Cl)cc3)cc2C(=O)N1Cc1cccnc1`, the figure is 207 to 210 °C. The molecule `CN1Cc2cscc2Nc2ccccc21` gave a melting point of 110 to 112 °C.

In turn, `O=C(c1c[nH]c2ncc(Br)nc12)C12CC3CC(CC(C3)C1)C2` came in with a melting point of 279 to 280 °C. As for `O=C(O)c1ccc(-c2nc(-c3ccc(Br)cc3)cs2)cc1`, the figure is more than 300 °C; as for `CC(=O)Cc1ccc(CC2SC(=N)NC2=O)cc1` (centres undefined), 196 to 198 °C. As for `COc1ccc(-c2cccc3[nH]c4c(c23)CCN(Cc2ccccc2)CC4)c(C)c1`, the figure is 177 to 178 °C.
